Measured values published in paper PMC10528299, “Targeting FAK/PYK2 with SJP1602 for Anti-Tumor Activity in Triple-Negative Breast Cancer” (Current Issues in Molecular Biology, 2023).
Values joined by “and” are separate entries in the source; they are usually repeats but may differ in a detail not shown here. Equal entries are not always repeated.

Key:
MDA-MB-231 cells [1] = test: Transwell cell migration assay; format: cell-based, human; conditions: 5 µM, 16 h
Procedure: Cell migration capacity was analyzed using the transwell migration assay. The 24-well chambers (8 μm pore size) were obtained from Corning (Corning, NY, USA). Cells treated with vehicle or FAK inhibitors (SJP1602, VS-6063, GSK2256098) at a concentration of 5 μM were resuspended in serum-free media and 5 × 10^4 cells were added to the upper compartment of the transwell chambers. Fresh culture medium with 5% FBS was added to the lower compartment. After 16 h, cells on the upper side of the filter were removed using cotton swabs. The underside of the filter was fixed in 100% methanol, washed in PBS, and stained using crystal violet. Migrated cells were analyzed using a microscope (Nikon, TE2000). Image analysis was performed using the color analysis function in Adobe Photoshop 2021 (Version 22.4.2, Adobe (San Jose, CA, USA)). Quantitative data were obtained from color measurement records in Adobe Photoshop 2021.

MDA-MB-231 xenograft = MDA-MB-231 xenograft mouse model
Procedure: (§3) Upon establishment of tumors, with an average tumor volume reaching approximately 100 mm^3, mice were grouped and subjected to daily oral dosing. […] The duration of drug administration was defined for 2 weeks based on the growth rate of the vehicle group of each xenografted tumor. The tumor volume was measured three times a week for potency measurement, and the body weight of mice was also measured three times a week for toxicity evaluation in vivo.

MDA-MB-453 xenograft = MDA-MB-453 xenograft mouse model; conditions: for TGI: 56 days
Procedure: as §3

BT-549 xenograft = BT-549 xenograft mouse model
Procedure: as §3

[2] = target: T1, FAK [pY397] in MDA-MB-453 cells (Homo sapiens, UniProt Q05397); test: FAK [pY397] ELISA in MDA-MB-453 cells; format: cell-based; conditions: MDA-MB-453, 1 h treatment, mean ± SEM (n = 3); read-out: IC50 FAK phosphorylation (pY397 ELISA)
T1 construct: endogenous in cells; host or cells: MDA-MB-453
T1 sequence (Q05397 whole entry): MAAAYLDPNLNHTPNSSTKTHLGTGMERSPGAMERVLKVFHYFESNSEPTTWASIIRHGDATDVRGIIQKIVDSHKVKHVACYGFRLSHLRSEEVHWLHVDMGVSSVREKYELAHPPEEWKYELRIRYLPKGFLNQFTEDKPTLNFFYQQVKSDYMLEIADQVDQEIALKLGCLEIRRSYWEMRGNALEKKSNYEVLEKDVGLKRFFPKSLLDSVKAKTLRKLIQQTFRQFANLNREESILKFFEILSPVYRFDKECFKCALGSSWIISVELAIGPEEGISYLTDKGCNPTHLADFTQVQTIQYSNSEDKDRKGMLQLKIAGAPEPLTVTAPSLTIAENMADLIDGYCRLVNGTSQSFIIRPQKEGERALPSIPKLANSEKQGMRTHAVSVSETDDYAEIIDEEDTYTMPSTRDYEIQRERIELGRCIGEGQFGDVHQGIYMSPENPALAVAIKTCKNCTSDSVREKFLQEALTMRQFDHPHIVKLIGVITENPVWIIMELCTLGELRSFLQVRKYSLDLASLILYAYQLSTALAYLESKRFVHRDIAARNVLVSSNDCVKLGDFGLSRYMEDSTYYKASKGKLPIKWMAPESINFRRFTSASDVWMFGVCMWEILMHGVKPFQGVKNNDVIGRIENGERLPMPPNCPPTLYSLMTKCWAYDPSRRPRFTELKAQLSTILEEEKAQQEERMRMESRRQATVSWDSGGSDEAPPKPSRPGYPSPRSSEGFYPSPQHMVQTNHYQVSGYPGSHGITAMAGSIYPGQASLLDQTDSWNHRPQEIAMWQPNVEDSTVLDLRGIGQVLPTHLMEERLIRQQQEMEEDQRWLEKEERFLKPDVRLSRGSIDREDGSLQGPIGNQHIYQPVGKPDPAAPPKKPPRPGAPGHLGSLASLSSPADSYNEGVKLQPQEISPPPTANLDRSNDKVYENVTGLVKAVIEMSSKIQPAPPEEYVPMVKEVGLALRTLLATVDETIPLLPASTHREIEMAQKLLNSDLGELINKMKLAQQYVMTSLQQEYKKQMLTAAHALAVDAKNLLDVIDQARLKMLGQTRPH
Procedure: (§1) TNBC cells were seeded into 60 mm dishes at a density of 1 × 10^6 cells/dish in 5 mL of culture media. After 24 h, cells were treated with concentrations ranging from 1 nM to 10 μM of SJP1602 for 1 h, and cell lysates were prepared to detect phospho-FAK levels. The FAK [pY397] enzyme-linked immunosorbent assay was performed according to the manufacturer’s instructions. The absorbance at 450 nm was measured to quantify the results.

[3] = Cytotoxicity on normal cell line WI38; format: cell-based; conditions: human, WI38 cells (normal cell line); read-out: Cytotoxicity on Normal Cell Lines IC50
[4] = Toxicity and body weight in xenograft mice; conditions: mouse xenograft experiments, 20-80 mg/kg po daily
Procedure: as §3

[5] = system: MDA-MB-231, 4T1, and Hs578T cells; test: 3D cell invasion assay; format: cell-based; conditions: 1 µM, 72 h, compared to VS-6063 and GSK 2256098
Procedure: Cells were added to an ultra-low 96-well round-bottom plate at a density of 5 × 10^3 cells/well and cultured for 3 days to form spheroids. The medium was removed, and a mixture of neutralized Type I Collagen and Matrigel was added to the wells. After 1 h of incubation, compound concentrations (2×) in 100 μL of solution were added per well. The plate was then incubated for 72 h. Relative invasion was quantified based on the following formula using the microscope and imaging software ImageJ (Version 2.1.0/1.54e, National Institutes of Health, Bethesda, MD, USA):Relative invasion = (total area of compound treated group − spheroid area of compound treated group/(total area of control − spheroid area of control)(1)

PYK2 = target: T2, PYK2 (Homo sapiens, UniProt Q14289); test: ADP-Glo kinase assay PYK2; format: biochemical; conditions: mean ± SEM (n = 3)
T2 construct: purchased Promega V4083
T2 sequence (Q14289 whole entry): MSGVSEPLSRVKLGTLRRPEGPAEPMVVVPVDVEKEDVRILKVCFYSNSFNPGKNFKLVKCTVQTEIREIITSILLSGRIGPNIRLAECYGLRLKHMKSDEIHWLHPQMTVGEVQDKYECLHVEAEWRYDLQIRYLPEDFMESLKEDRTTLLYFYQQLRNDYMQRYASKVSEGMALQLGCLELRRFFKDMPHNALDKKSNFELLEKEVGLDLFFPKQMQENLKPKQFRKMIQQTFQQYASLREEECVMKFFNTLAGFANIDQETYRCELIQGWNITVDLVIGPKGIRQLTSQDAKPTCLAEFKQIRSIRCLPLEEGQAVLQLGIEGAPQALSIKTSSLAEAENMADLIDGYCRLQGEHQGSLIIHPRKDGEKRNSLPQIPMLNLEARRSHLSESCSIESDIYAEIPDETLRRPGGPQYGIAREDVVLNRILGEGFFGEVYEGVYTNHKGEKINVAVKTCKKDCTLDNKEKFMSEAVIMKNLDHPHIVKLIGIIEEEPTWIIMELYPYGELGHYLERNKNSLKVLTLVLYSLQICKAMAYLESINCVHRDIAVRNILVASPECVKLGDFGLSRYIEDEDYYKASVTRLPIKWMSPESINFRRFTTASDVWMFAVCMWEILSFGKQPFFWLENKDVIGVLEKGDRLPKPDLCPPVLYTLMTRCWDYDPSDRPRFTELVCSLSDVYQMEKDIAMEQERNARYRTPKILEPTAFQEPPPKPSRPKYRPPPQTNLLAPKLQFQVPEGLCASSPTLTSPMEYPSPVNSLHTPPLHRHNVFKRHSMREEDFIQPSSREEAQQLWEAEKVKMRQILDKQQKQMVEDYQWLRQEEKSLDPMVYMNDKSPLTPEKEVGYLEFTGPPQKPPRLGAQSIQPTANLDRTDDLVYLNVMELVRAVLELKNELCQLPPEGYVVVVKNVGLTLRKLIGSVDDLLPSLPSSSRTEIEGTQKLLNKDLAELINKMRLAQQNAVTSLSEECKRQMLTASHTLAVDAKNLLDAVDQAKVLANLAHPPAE
Procedure: (§2) The kinase assays were performed and quantified according to the manufacturer’s instructions using the ADP-Glo™ Kinase Assay Kit for FAK (Promega, V1971), PYK2 (Promega, V4083) and InsR (Promega, V3901). Each kinase reaction mixture was prepared to contain the compounds of interest. After thorough pipetting, 25 μL of the mixture was added to each well and incubated for 1 h at room temperature. Subsequently, 25 μL of ADP-Glo reagent was added, followed by a 40 m incubation at room temperature. Next, 50 μL of the kinase detection reagent was added, and the mixture was incubated for an additional 30 m at room temperature. Luminescence was measured using the Tecan Spark 10M (Integration time: 1 s) (Männedorf, Switzerland).

MDA-MB-231 cells [6] = test: 2D cell invasion assay (Boyden chamber, Matrigel); format: cell-based, human; conditions: 5 μM, 48 h, Matrigel-coated Boyden chamber
Procedure: Cell invasion capacity was analyzed using the Boyden chamber assay. The 24-well Boyden chambers with Matrigel-coated filters (8 μm pore size) were obtained from Becton-Dickinson (San Diego, CA, USA). Cells treated with vehicle or FAK inhibitors (SJP1602, VS-6063, GSK2256098) at a concentration of 5 μM were resuspended in serum-free media and 5 × 10^5 cells were added to the Matrigel-coated upper compartment of the invasion chambers. Fresh culture medium with 5% FBS was added to the lower compartment. After 48 h, cells on the upper side of the filter were removed using cotton swabs. The underside of the filter was fixed in 100% methanol, washed in PBS, and stained using crystal violet. Cells that invaded the Matrigel were analyzed using a microscope (Nikon, TE2000). Image analysis was performed using the color analysis function in Adobe Photoshop 2021 (Version 22.4.2, Adobe, Adobe (San Jose, CA, USA)). Quantitative data were obtained from color measurement records in Adobe Photoshop 2021.

[7] = Cytotoxicity on normal cell line CCD-18Co; format: cell-based; conditions: human, CCD-18Co cells (normal cell line); read-out: Cytotoxicity on Normal Cell Lines IC50
[8] = Cytotoxicity on normal cell line HEK293T; format: cell-based; conditions: human, HEK293T cells (normal cell line); read-out: Cytotoxicity on Normal Cell Lines IC50
[9] = target: T3, FAK [pY397] in HCC70 cells (Homo sapiens, UniProt Q05397); test: FAK [pY397] ELISA in HCC70 cells; format: cell-based; conditions: HCC70, 1 h treatment, mean ± SEM (n = 3); read-out: IC50 FAK phosphorylation (pY397 ELISA)
T3 construct: endogenous in cells; host or cells: HCC70
T3 sequence (Q05397 whole entry): as the sequence (Q05397 whole entry) above
Procedure: as §1

FAK = target: T4, FAK (Homo sapiens, UniProt Q05397); test: ADP-Glo kinase assay FAK; format: biochemical; conditions: mean ± SEM (n = 3)
T4 construct: purchased Promega V1971
T4 sequence (Q05397 whole entry): as above
Procedure: as §2

For `CONC(=O)c1ccccc1Nc1cc(Nc2cc(C)nn2C(C)C)ncc1Cl` [GSK2256098], the “serum-stimulated migration of MDA-MB-231 cells” value (MDA-MB-231 cells [1]) was “did not affect”.

For `CNC(=O)c1ccc(Nc2ncc(C(F)(F)F)c(NCc3nccnc3N(C)S(C)(=O)=O)n2)cc1` [VS-6063, Defactinib], the TGI (MDA-MB-231 xenograft; 80 mg/kg po QD, day 14) was 54.6%, the TGI (MDA-MB-453 xenograft; 80 mg/kg po QD) was 110.9% and the “tumor growth inhibition (in words)” value (BT-549 xenograft; 80 mg/kg) was “ineffective”. The TGI (BT-549 xenograft; 80 mg/kg po QD) was 10.1%.

With `CNC(=O)c1cccc(C)c1Nc1nc(Nc2ccc(N3CCN(C4C5CC6CC4CC(O)(C6)C5)CC3)cc2OC)ncc1C(F)(F)F` (stereo not drawn) [SJP1602, 2-((2-((4-(4-((2s,5r)-5-hydroxyadamantan-2-yl)piperazin-1-yl)-2-methoxyphenyl)amino)-5-(trifluoromethyl)pyrimidin-4-yl)amino)-N,3-dimethylbenzamide] the IC50 [2] was 43 ± 16 nM, the IC50 [3] was 7280 nM and the TGI (MDA-MB-231 xenograft; 20 mg/kg po QD, day 14, 20 mg/kg) was 72% and 72.1%. The TGI (MDA-MB-231 xenograft; 40 mg/kg po QD, day 14, 40 mg/kg) was 74%, the TGI (MDA-MB-231 xenograft; 80 mg/kg po QD, day 14, 80 mg/kg) was 81% and 81.3% and the “tumor mass and weight” value (MDA-MB-231 xenograft; 80 mg/kg, day 14) was “significant reduction”. The “serum-stimulated migration of MDA-MB-231 cells” value (MDA-MB-231 cells [1]) was “considerably reduced”, the “signs of toxicity or weight loss in xenograft mice” value [4] was “no signs of toxicity or significant weight loss” and the “TNBC cell invasion (3D)” value [5] was “significantly inhibits”. It also gave an IC50 (PYK2) of 24.7 ± 0.919 nM, a TGI (MDA-MB-453 xenograft; 20 mg/kg po QD) of 88.9% and a TGI (MDA-MB-453 xenograft; 80 mg/kg po QD) of 114.1%. The “tumor volume and weight” value (MDA-MB-453 xenograft; 80 mg/kg, day 56) was “substantial reduction”, the “invasion of MDA-MB-231 cells” value (MDA-MB-231 cells [6]) was “markedly inhibited” and the IC50 [7] was > 10000 nM. The IC50 [8] was > 10000 nM, the IC50 [9] was 83 ± 17 nM and the IC50 (FAK) was 3.7 ± 0.007 nM. The “tumor growth inhibition (in words)” value (BT-549 xenograft; 20 mg/kg) was “pronounced inhibition of cancer growth”, the TGI (BT-549 xenograft; 20 mg/kg po QD) was 76.0% and the TGI (BT-549 xenograft; 80 mg/kg po QD) was 77.5%. The tumor weight (BT-549 xenograft; 80 mg/kg, day 21) was “did not statistically significantly decrease”.
